Experimental data from publication PMC5556108, “In vivo evaluation of radiotracers targeting the melanin-concentrating hormone receptor 1: [^11C]SNAP-7941 and [^18F]FE@SNAP reveal specific uptake in the ventricular system” (Scientific Reports, 2017).
Where a name gives a salt, the structure may show the parent alone. Read-outs that look alike come from different tables or passages of the source.

How the values were obtained:
hMCHR1 = target: T1, hMCHR1 (Homo sapiens, UniProt Q99705); experiment: Competitive binding studies: displacement of specific [125I]MCH binding on CHO-K1 cell membranes; details: for binding cooperativity (from Hill slope factor) / Hill slope factor: displacement of [125I]MCH; for binding cooperativity (from Hill slope factor): CHO-K1 cell membranes expressing hMCHR1
T1 construct: purchased PerkinElmer, Inc., Waltham, USA; host or cells: CHO-K1 cell membranes
Description: Competitive binding studies were conducted on CHO-K1 cell membranes expressing the hMCHR1 (PerkinElmer, Inc., Waltham, USA). Briefly, cell membranes (10 µg/mL) were dissolved in 500 µL 50 mM Tris buffer (pH 7.4) (containing 10 mM MgCl2, 2 mM EDTA, 0.1% bacitracin and 0.2% BSA). […] All non-labelled compounds were initially dissolved in DMSO and diluted with deionized water to the final concentration, where the amount of DMSO never exceeded 5%. The membranes were incubated in vials at room temperature for 120 min. Subsequently, bound and free fractions of radioligand were separated by centrifugation at 40 000 × g for 20 min. The supernatants were removed into new vials and pellets were washed twice with 800 µL ice cold Tris buffer. The pellets were finally dissolved in 1300 µL Tris buffer and the radioactivity of both, the supernatant and the pellet, was measured in a Gamma Counter (2480 WIZARD[2], PerkinElmer, Waltham, MA, USA). The half-maximum inhibitory concentration (IC50) was determined using GraphPad Prism 6.0 (GraphPad Software, Inc., San Diego, CA, USA) and converted into the Ki using the Cheng Prusoff equation[38].

[1] = tested on: P-glycoprotein (P-gp) and Breast Cancer Resistance Protein (BCRP); set-up: method as in PMID 23829932; details: due to binding to P-gp and BCRP; cited from earlier work
MCHR1 [2] = target: T2, MCHR1 (Rattus norvegicus, UniProt P97639); experiment: Ex-vivo brain uptake measured in the Gamma Counter; details: mean ± SEM
T2 construct: Small-animal PET/MRI brain scans in healthy rats evinced high radiotracer uptake in the entire ventricular system; from tissue; host or cells: brain (whole brain, ventricular system) of male Sprague-Dawley rats, in vivo / ex vivo
Description: (§1) Anaesthetized rats were immobilized in a multimodal animal carrier unit (MACU; medres® – medical research GmbH, Cologne, Germany) and maintained at a body temperature of 37 °C throughout the whole experiment. Animals received either [^11C]SNAP-7941 or [^18F]FE@SNAP, followed by an injection of (±)-SNAP-7941 (15 mg/kg body weight, freshly dissolved in 400 µL; displacement condition; n = 3) or 400 µL of the respective solvent (vehicle condition; n = 3). The MCHR1 antagonists and the vehicle were administered either 15 min ([^11C]SNAP-7941) or 20 min ([^18F]FE@SNAP) after radiotracer injection as a bolus via the lateral tail vein. A stereotactic holder attached to the MACU was used to fix the head of the animals in a reliable and reproducible position within the whole imaging study. Experiments were initiated with a 7 minute cone beam attenuation CT (CBCT) of the brain (360 projections; binning 4 × 4; 80 kV; 500 µA; 200 ms exposure time) using a small-animal CT scanner (Siemens Inveon microSPECT/CT, Siemens Medical Solutions, Knoxville, USA). Subsequently the animals were positioned in the imaging chamber of a Siemens Inveon microPET scanner (Siemens Medical Solution, Knoxville, USA). [^11C]SNAP-7941 (75.85 ± 5.80 MBq; molar activity: 33.12 ± 25.73 GBq/µmol; radiochemical purity: >99%) or [^18F]FE@SNAP (44.12 ± 4.41 MBq; molar activity: 22.18 ± 9.72 GBq/µmol; radiochemical purity: >90%) was injected (200–800 µL) via the lateral tail vein and dynamic PET imaging was performed 45 min for the [^11C]-labeled radiotracer and 60 min for the [^18F]-labeled ligand. Immediately afterwards, T1-weighted high-resolution axial, coronary and sagittal brain MRI scans (2D FLASH; echo time: 3.85 ms; repetition time: 282 ms; flip angle: 30°; field of view: 35 × 35 mm; resolution: 68 × 68 µm; slice thickness: 0.4 mm) were performed using a Bruker BioSpec 94/30 USR small-animal MR system (Bruker BioSpin GmbH, Karlsruhe, Germany). At the end of the imaging study animals were sacrificed under anesthesia through an intravenous injection of pentobarbital sodium (Release® 300 mg/mL, WDT, Garbsen, Germany), brains were removed, weighed and subjected to radioactivity measurements in a Gamma Counter (2480 WIZARD[2], PerkinElmer, Waltham, MA, USA). Values were normalized to weight and dose and expressed as the percentage injected dose per gram of tissue (%ID/g).

MCHR1 [3] = target: T2, MCHR1; experiment: Small-animal PET/CT/MRI brain imaging, radiotracer uptake (SUV) under baseline and displacement conditions; type: in vivo
Description: Twelve-weeks old male Sprague-Dawley rats (HIM:OFA, Himberg, Austria) weighing 389 ± 86 g were kept under controlled environmental conditions (22 ± 1 °C; 40–70% humidity; 12 hours light/dark cycle) with free access to water and standard laboratory animal diet (sniff R/M-H, sniff Spezialdiaeten GmbH, Soest, Germany). Prior to each experiment, the animals were placed into an induction chamber and anesthetized with 2.5% isoflurane. When unconscious, the animals were taken from the chamber and kept under anesthesia with 1.5–2.5% isoflurane provided via a mask during the whole experiment. Physiological parameters and the depth of anesthesia were monitored continuously. Administration of radioligands and MCHR1 antagonists were performed intravenously via the lateral tail vein. All procedures and protocols using animals have been approved by the Institutional Animal Care and Use Committee of the Medical University of Vienna, Austria, as well as by the Austrian Ministry of Science, Research and Economy (BMWFW-66.009/0029-WF/V/3b/2015). Every effort was made to minimize both, the suffering and the number of animals. All experimental procedures and protocols used in this study were performed in accordance with the relevant guidelines and regulations.
as §1
CT raw data was reconstructed with a Feldkamp algorithm using a Shepp-Logan filter followed by standard rat beam-hardening correction and noise reduction (matrix size: 1024 × 1024; effective pixel size: 97.56 µm). […]

[4] = set-up: method as in PMID 24106662; details: cited from earlier work
[5] = displacement of 0.1 nM [125I]MCH, CHO-K1 cell membranes expressing hMCHR1, Cheng Prusoff, mean ± SEM
[6] = displacement of 0.1 nM [125I]MCH, CHO-K1 cell membranes expressing hMCHR1, mean ± SEM, three independent experiments
[7] = CHO-K1 cell membranes expressing hMCHR1, mean ± SEM
[8] = group with displacement via (±)-SNAP-7941 (15 mg/kg)
[9] = i.v. tracer, before displacement, group displaced with 15 mg/kg (±)-SNAP-7941, mean ± SEM
[10] = i.v. tracer, before displacement, group displaced with vehicle, mean ± SEM
[11] = male, Sprague-Dawley, in vivo, iv
[12] = male, Sprague-Dawley, in vivo, iv, 15 mg/kg

T1 sequence (Q99705 whole entry): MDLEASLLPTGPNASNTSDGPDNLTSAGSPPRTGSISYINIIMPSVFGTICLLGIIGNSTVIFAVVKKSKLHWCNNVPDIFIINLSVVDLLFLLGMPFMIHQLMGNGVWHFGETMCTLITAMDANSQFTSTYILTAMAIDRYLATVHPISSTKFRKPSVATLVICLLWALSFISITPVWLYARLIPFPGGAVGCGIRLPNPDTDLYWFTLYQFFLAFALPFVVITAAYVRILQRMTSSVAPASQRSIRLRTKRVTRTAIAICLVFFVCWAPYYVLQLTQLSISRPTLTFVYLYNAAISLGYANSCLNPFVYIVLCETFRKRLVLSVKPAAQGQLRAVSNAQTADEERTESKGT
T2 sequence (P97639 whole entry): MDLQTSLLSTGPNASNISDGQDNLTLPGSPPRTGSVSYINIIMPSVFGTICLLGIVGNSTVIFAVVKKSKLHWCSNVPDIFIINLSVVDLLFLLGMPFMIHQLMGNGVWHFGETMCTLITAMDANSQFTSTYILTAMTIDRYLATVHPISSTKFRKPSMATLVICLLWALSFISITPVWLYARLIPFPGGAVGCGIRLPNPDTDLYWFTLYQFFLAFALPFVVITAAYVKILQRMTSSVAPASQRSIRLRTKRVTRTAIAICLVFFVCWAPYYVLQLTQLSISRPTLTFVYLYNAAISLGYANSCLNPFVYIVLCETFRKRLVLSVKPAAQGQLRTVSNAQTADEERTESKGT

Row | Compound | Ki (hMCHR1; [5]) | IC50 (hMCHR1; [6]) | binding cooperativity (from Hill slope factor) (hMCHR1) | Hill slope factor (hMCHR1; [7]) | IC50 (hMCHR1) | Ki (hMCHR1) | blood-brain-barrier penetration [1] | Ex-vivo brain uptake, normalized value (MCHR1 [2]; [8]) | Ex-vivo brain uptake, normalized value (MCHR1 [2]; vehicle group) | SUVbw whole brain, baseline (MCHR1 [3]; [9]) | SUVbw ventricular system, baseline (MCHR1 [3]; [10]) | SUVbw whole brain, baseline (MCHR1 [3]; [10]) | SUVbw ventricular system, baseline (MCHR1 [3]; [11]) | SUVbw ventricular system, displacement (MCHR1 [3]; [11]) | SUVbw whole brain, displacement (MCHR1 [3]; [11]) | SUVbw ventricular system, displacement (MCHR1 [3]; [12]) | SUVbw whole brain, displacement (MCHR1 [3]; [12]) | metabolism [4]
1 | COCC1=C(C(=O)OCCF)[C@H](c2ccc(F)c(F)c2)N(C(=O)NCCCN2CCC(c3cccc(NC(C)=O)c3)CC2)C(=O)N1 [FE@SNAP, (+)-(2-Fluoroethyl)(4 S)-3-{[(3-{4-[3-(acetylamino)phenyl]-1-piperidinyl}propyl)amin]carbonyl}-4-(3,4-difluorophenyl)-6-(methoxymethyl)-2-oxo-1,2,3,4-tetra-hydro-5-pyrimidenecarboxylate] | 9.98 ± 1.12 nM | 14.3 ± 1.61 nM | no binding cooperativity | 1.30 ± 0.33 | – | – | – | – | – | – | – | – | – | – | – | – | – | –
2 | COCC1=C(C(=O)OC)[C@H](c2ccc(F)c(F)c2)N(C(=O)NCCCN2CCC(c3cccc(NC(C)=O)c3)CC2)C(=O)N1 [(+)-SNAP-7941, (+)-methyl(4 S)-3-{[(3-{4-[3-(acetylamino)phenyl]-1piperidinyl}propyl)amino]carbonyl}-4-(3,4-difluorophenyl)-6-(methoxymethyl)-2-oxo-1,2,3,4-tetra-hydro-5-pyrimidenecarboxylate hydrochloride] | – | – | strong positive cooperativity | 8.89 ± 1.59 | 7.7 ± 0.35 nM | 5.37 ± 0.25 nM | – | – | – | – | – | – | – | – | – | – | – | –
3 | COCC1=C(C(=O)O[11CH3])[C@H](c2ccc(F)c(F)c2)N(C(=O)NCCCN2CCC(c3cccc(NC(C)=O)c3)CC2)C(=O)N1 [[^11C]SNAP-7941] | – | – | – | – | – | – | limited blood-brain-barrier penetration | 0.015 ± 0.002 %ID/g | 0.023 ± 0.002 %ID/g | 0.41 ± 0.03 g/mL | 0.65 ± 0.04 g/mL | 0.35 ± 0.03 g/mL | 0.64 ± 0.08 g/mL | 0.71 ± 0.04 g/mL | 0.34 ± 0.02 g/mL | 0.32 ± 0.04 g/mL | 0.31 ± 0.03 g/mL | –
4 | COCC1=C(C(=O)OC)[C@H](c2ccc(F)c(F)c2)N(C(=O)NCCCN2CCC(c3cccc(NC(C)=O)c3)CC2)C(=O)N1 (racemic) [(±)-SNAP-7941] | 3.91 ± 0.74 nM | 5.61 ± 1.06 nM | no binding cooperativity | 2.66 ± 0.39 | – | – | – | – | – | – | – | – | – | – | – | – | – | –
5 | COCC1=C(C(=O)OCC[18F])[C@H](c2ccc(F)c(F)c2)N(C(=O)NCCCN2CCC(c3cccc(NC(C)=O)c3)CC2)C(=O)N1 [[^18F]FE@SNAP] | – | – | – | – | – | – | – | 0.018 ± 0.003 %ID/g | 0.020 ± 0.001 %ID/g | 0.41 ± 0.01 g/mL | 0.72 ± 0.01 g/mL | 0.43 ± 0.02 g/mL | 0.69 ± 0.06 g/mL | 0.73 ± 0.02 g/mL | 0.44 ± 0.02 g/mL | 0.50 ± 0.04 g/mL | 0.41 ± 0.02 g/mL | fast metabolism
